Laboratory results reported in patent US6953671B2, “Plasma phospholipid transfer protein (PLTP) deficiency represents an anti-atherogenic state and PLTP inhibitor has anti-atherosclerosis action” (The Trustees of Columbia University in the City of New York, priority 2001, dated 2005).
Where a SMILES comes first, the peptide text is derived from it. [ ]: non-standard residue; d: D form. Nle = CCCC[C@H](N)C(=O)O

Tests used:
[1] = tested on: hepatocytes from apoBTg/PLTP0 and apoBTg mice; test: apoB in cell lysates of radiolabeled primary hepatocytes with or without ALLN; format: cell-based, mouse; conditions: 40 μg/ml ALLN, 30 min labeling; especially PLTP deficient cells
Procedure: (§1) Primary hepatocyte culture, immunoprecipitation and analysis of apoB or albumin from culture medium or cel lysate were performed as described previously^18. A, pulse change experiment, apoB in the cell media; B, pulse chase experiment, apoB in the cell lysate; C, determination of apoB secretion rate in the presence and absence of the proteoscflal inhibitor ALLN. Hepatocytes from apoBTg/PLTP0 and apoBTg mice were radiolabeled continuously with ^35Smethionine/cystein with or without 40 μg/ml ALLN fcr 30 mm. Cells ware lysed and lysates immunoprecipitated with apoB antibody. Samples were separated on SDS PAGE. D, determination of apoB secretion rate in the presence and absence of heparin. Hepatocytes from apoBTG/PLTP0 and apoBTg mice were radiolabeled continuously with ^35Smethionine/cystein with or without 10 mg/ml heparin for 3 hr. […]
(§2) Immunoprecipitation and analysis of apoB from culture medium or cell lysate: The primary hepatocytes were allowed to attach to dishes for 90 minutes. […] At each chase time point (30 minutes, 1 hour and 2 hours), medium apoB and cell lysate apoB were immunoprecipitated by apoB antibody together with protein A/G agarose, the precipitates were size-fractionated on a 4% SDS PAGE gel, the gel was dried, and the incorporation of ^35S into apoB48 and apoB100 was assessed with a Fuji Bio-Imaging Analyzer (Fuji Medical Systems, Stamford, Conn.).

[2] = molecular target: plasma phospholipid transfer protein (PLTP) (UniProt P55065); test: PLTP inhibition assay (radiolabeled phospholipid transfer from vesicles to HDL by plasma); format: biochemical; conditions: 3 μl plasma, 0-50 μM compound, 400 μl assay
Procedure: PLTP activity assays: Egg phosphatidylcholine (10 μmol) containing 10 nmol of [3H]PC (L-a-dipalmitoyl-[2-palmitoyl-9,10-3H(N)]-phosphatidylcholine) was dried under a stream of nitrogen, resuspended in 1 ml of a solution of 10 mM Tris, 150 mM NaCl, 1 mM ethylenediaminetetraacetic acid (EDTA) (pH 7.4), and then probe-sonicated and centrifuged. Transfer of radiolabeled phospholipid was measured by incubating 3 μl of plasma with radiolabeled phospholipid vesicles (125 nmol PC) and HDL (250 μg protein) in a final volume of 400 μl at 37° C. for 1 hour.
The following compound, which is a known cholesteryl ester transfer protein (CETP) inhibitor (compound No. 3 in Okamoto et al.^38) was dissolved in dimethlysulfonyl oxide (DMSO) (stock solution 2 mM): [drawing 1] A final volume of 400 μl assay system was prepared containing phosphatidylcholine, HDL, 3 μl of plasma, and 0-50 μM of the compound. Vesicles were subsequently precipitated by the addition of 300 μl of a solution of 500 mM NaCl, 215 mM MnCl2, 445 U/ml heparin, and the radioactivity of a 500-μl aliquot of the supernatant was measured.

[3] = tested on: hepatocytes from apoBTg/PLTP0 and apoBTg mice; test: apoB/BLp accumulation in media of primary hepatocytes with or without heparin; format: cell-based, mouse; conditions: 10 mg/ml heparin, 3 hr
Procedure: as §1, §2

CCCC[C@@H](C=O)NC(=O)[C@H](CC(C)C)NC(=O)[C@H](CC(C)C)NC(C)=O [ALLN, N-acetyl-leu-leu-norleu-AL] (Ac-Leu-Leu-[Nle]-aldehyde)
levels of apoB within cells [1]: increased levels of apoB within cells

CC(C)(C)C(=O)Nc1ccccc1SSc1ccccc1NC(=O)C(C)(C)C [compound #3]
Ki [2]: 15 µM

heparin
accumulation of BLp in media ([3]; PLTP deficient hepatocytes): failed to increase BLp accumulation
accumulation of BLp in media ([3]; hepatocytes from apoB transgenic mice): increased the accumulation of BLp in media
